Results from PubChem BioAssay AID602444 (National Center for Advancing Translational Sciences (NCATS), 2012).

System: mouse liver microsomes without NADPH, percent remaining
Assay: High Content Assay for Compounds that inhibit the Assembly of the Perinucleolar Compartment: Mouse Liver Microsome Stability without NADPH
Conditions: stronger effect = lower value
Description: The perinucleolar compartment (PNC) is a non-membrane-bound nuclear subdomain that is associated with but structurally distinct from the nucleolus. The PNC is a heritable trait, in which the number of PNCs per cell in daughter cells often mimics that of their mother cells. The PNC is heterogeneous in shape, is stable through interphase, disassembles during mitosis, and reassembles in early G1. The PNC is concentrated with newly synthesized RNA polymerase III (pol III) RNAs (MRP RNA, RNAse P H1 RNA, hY RNAs[hY1, 2, 5], Alu RNA, and SRP [7SL] RNA) and RNA binding proteins (nucleolin, PTB, CUG-BP, KSRP, Raver1, Raver2, and Rod).
Extensive in vitro studies have shown that the PNC is unique to tumor cells and preferentially forms in tumor cells derived from solid tissues. Examination of cancer cell lines from various origins and malignant capacities has shown that PNC prevalence correlates with the malignancy of tumors and has the potential to be developed as a pan-cancer prognostic marker.
Mouse liver microsomes are generated from lysed mouse liver. Liver microsomes contain many drug metabolizing enzymes, including Cytochome P-450s and flavin-containing monooxygenases. Because drug metabolism is major way of drug clearance, this is an important result. […]
1uM of compound in incubated in mouse liver microsome; the reference compound is ketanserin. […] Samples are analyzed with LC-MS/MS.

Compound: N=c1c2c(-c3ccccc3)c(-c3ccccc3)n(Cc3ccccc3)c2ncn1C1CCC(O)CC1 (stereo unspecified)
- percent remaining: 106%
